Experimental data: patent US20100152188A1, “Novel Heterocyclic Compounds” (priority 2005, published 2010)
Like-named read-outs stand apart in the source and are kept apart here.

What was measured:
Format in all cases: cell-based
[1] = test system: NCIH460, HCT116, MDAMB-231/U 251; test: Anti-cancer screen, mean GI50 over the cell lines; conditions: in µM
Experimental: (§1) Experimental drugs are screened for anti-cancer activity in three cell lines for their GI50, TGI and LC50 values (using five concentrations for each compound). The cell lines are maintained in DMEM containing 10% fetal bovine serum. 96 well micro titer plates are inoculated with cells in 100 µL for 24 hours at 37° C., 5% CO2, 95% air and 100% relative humidity. 5000 HCT 116 cells/well, 5000 NCIH 460 cells/well and 5000 U251 cells/well are plated. A separate plate with these cell lines is also inoculated to determine cell viability before the addition of the compounds (T0).
(§2) Following 24-hour incubation, experimental drugs are added to the 96 well plates. Each plate contains one of the above cell lines and the following in triplicate: five different concentrations (0.01, 0.1, 1, 10 and 100 µM) of four different compounds, appropriate dilutions of a cytotoxic standard and control (untreated) wells. Compounds are dissolved in DMSO to make 20 mM stock solutions on the day of drug addition and frozen at −20° C. Serial dilutions of these 20 mM stock solutions are made in complete growth medium such that 100 µL of these drug solutions in medium, of final concentrations equaling 0.01, 0.1, 1, 10 and 100 µM can be added to the cells in triplicate. Standard drugs whose anti-cancer activity has been well documented and which are regularly used are doxorubicin and SAHA.
(§3) For T0 measurement, 24 hours after seeding the cells, 10 µL of 3-(4,5-Dimethyl-2-thiazolyl)-2,5-diphenyl-2H-tetrazolium (MTT) solution per well is added and incubation carried out for 3 hours at 37° C., 5% CO2, 95% air and 100% relative humidity, protected from light. Cells incubated with compounds for 48 hours are treated similarly except with the addition of 20 µl MTT solution per well and a subsequent incubation under the same conditions. After 3 hours of MTT incubation, well contents are aspirated carefully followed by addition of 150 µL DMSO per well. Plates are agitated to ensure solution of the formazan crystals in DMSO and absorbance read at 570 nm.
(§4) Percent growth is calculated for each compound's concentration relative to the control and zero measurement wells (T0; viability right before compound addition). If a test well's O.D. value is greater than the T0 measurement for that cell line

[2] = test system: NCIH460; test: Anti-cancer screen (MTT), NCIH460; conditions: Homo sapiens, NCI-H460, 48 hours with compound, tested at 0.01-100 µM
Experimental: as §1, §2, §3, §4
(§5) %Growth=(test−zero)/(control−zero)×100
(§6) If a test well's O.D. value is lower than the T0 measurement for that cell line, then,
(§7) %Growth=(test−zero)/zero×100

[3] = test system: HCT116; test: Anti-cancer screen (MTT), HCT116; conditions: Homo sapiens, HCT-116, 48 hours with compound, tested at 0.01-100 µM
Experimental: as §1, §2, §3, §4, §5, §6, §7

[4] = test system: MDAMB-231/U 251; test: Anti-cancer screen (MTT), MDAMB-231/U 251; conditions: for CC50: read-out: MDAMB-231/U 251 LC50
Experimental: as §1, §2, §3, §4, §5, §6, §7

[5] = 48 hours with compound, MTT, tested at 0.01-100 µM

SMILES	Mean GI50 [1]	GI50 [2] [µM]	IC (TGI) [2] [µM]	LC50 [2] [µM]	GI50 [3] [µM]	IC (TGI) [3] [µM]	LC50 (concentration giving 50% net cell kill relative to T0) [3] [µM]	CC50 ([4]; 48 h) [µM]	GI50 [4, 5] [µM]	IC (TGI) [4, 5] [µM]	CC50 ([3]; read-out: HCT116 LC50) [µM]	CC50 [4, 5] [µM]
O=C(NCc1ccc(C(=O)NO)cc1)OCc1ccc(C(F)(F)F)cc1 [Example 35, 4-(Trifluoromethyl)benzyl{4-[(hydroxyamino)carbonyl]benzyl}carbamate]	8.4	20	50	80	5	12	60	70	0.05	15		
COc1cc(COC(=O)NCc2ccc(C(=O)NO)cc2)cc(OC)c1OC [Example 36, 3,4,5-Trimethoxybenzyl{4-[(hydroxyamino)carbonyl]benzyl}carbamate]	36.2	68	> 100	> 100	35	60	85	85	5.5	10		
O=C(NCc1ccc(C(=O)NO)cc1)OCc1c(F)cc(F)cc1F [Example 38, 2,4,6-Trifluorobenzyl{4-[(hydroxyamino)carbonyl]benzyl}carbamate]	9.2	22	52	82	5	20	65	68	0.5	8		
O=C(NCc1ccc(C(=O)NO)cc1)OCCSc1nc2ccccc2s1 [Example 39, 2-(1,3-Benzothiazol-2-ylthio)ethyl{4-[(hydroxyamino)carbonyl]benzyl}carbamate]	7.3	16	54	82	5.5	10	62	65	0.4	5		
CNC(=O)c1ccc(CNC(=O)OCc2nc3ccccc3[nH]2)cc1 [Example 41, 1H-Benzimidazol-2-ylmethyl{4-[(methylamino)carbonyl]benzyl}carbamate]	24.3	6	> 100	> 100	58	> 100	> 100	> 100	9	> 100		
CNC(=O)c1ccc(CNC(=O)OCC2COc3ccccc3O2)cc1 (stereo not shown) [Example 42, 2,3-Dihydro-1,4-benzodioxin-2-ylmethyl{4-[(methylamino)carbonyl]benzyl}carbamate]	>100	> 100	> 100	> 100	> 100	> 100	> 100	> 100	0.7	> 100		
CONC(=O)c1ccc(CNC(=O)OCc2c(F)c(F)c(F)c(F)c2F)cc1 [Example 44, Pentafluorobenzyl(4-{[methoxyamino]carbonyl}benzyl)carbamate]	22.67	42	> 100	> 100	21	> 100	> 100	> 100	5	9		
O=C(NCc1ccc(C(=O)Nc2nnc(C3CC3)s2)cc1)OCc1c(F)c(F)c(F)c(F)c1F [Example 56, Pentafluorobenzyl(4-{[(5-cyclopropyl-1,3,4-thiadiazol-2-yl)amino]carbonyl}benzyl)carbamate]	0.5	0.3	0.8	> 100	0.5	> 100	> 100	65	0.8	7		
O=C(NCc1ccc(C(=O)NCCO)cc1)OCc1cccs1 [Example 61, 2-Thienylmethyl(4-{[(2-hydroxyethyl)amino]carbonyl}benzyl)carbamate]	>100	> 100	> 100	> 100	> 100	> 100	> 100	> 100	65	> 100		
O=C(NCc1ccc(C(=O)N2CCN(Cc3ccc4c(c3)OCO4)CC2)cc1)OCc1c(F)cc(F)cc1F [Example 62, 2,4,6-Trifluorobenzyl(4-{[4-(1,3-benzodioxol-5-ylmethyl)piperazin-1-yl]carbonyl}benzyl)carbamate]	1.7	0.1	8.5	> 100	3	> 100	> 100	> 100	2	10		
CC(=O)N(O)C(=O)Cc1csc(NC(=O)OCc2cc(Br)cs2)n1 [Example 79, (4-Bromo-2-thienyl)methyl(4-{2-[acetyl(hydroxy)amino]-2-oxoethyl}-1,3-thiazol-2-yl)carbamate]	20.1	30	74	> 100	30	65			0.4	52	95	100
O=C(CCCNC(=O)Cc1csc(NC(=O)OCc2cccnc2)n1)NO [Example 88, Pyridin-3-ylmethyl[4-(2-{[4-(hydroxyamino)-4-oxobutyl]amino}-2-oxoethyl)-1,3-thiazol-2-yl]carbamate]	>100	> 100	> 100	> 100	> 100	> 100	> 100	> 100	6	> 100		
O=C(CCCNC(=O)Cc1csc(NC(=O)OCc2c(F)c(F)c(F)c(F)c2F)n1)NO [Example 92, Pentafluorobenzyl[4-(2-{[4-(hydroxyamino)-4-oxobutyl]amino}-2-oxoethyl)-1,3-thiazol-2-yl]carbamate]	>100	> 100	> 100	> 100	> 100	> 100	> 100	> 100	30	50		
